# The source made the active and inactive calls.
# Columns and labels:
# [1] = target: T1, Short transient receptor potential channel 4 (Mus musculus, UniProt Q9QUQ5); experiment: block of DAMGO-driven TRPC4 calcium entry – cell-based, HEK293 TRPC4/mu-opioid, Fluo-4 calcium, dose response (AID 434942); format: functional;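 note: potency of inhibitors blocking the TRPC4 calcium response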
# T1 sequence (Q9QUQ5 whole entry): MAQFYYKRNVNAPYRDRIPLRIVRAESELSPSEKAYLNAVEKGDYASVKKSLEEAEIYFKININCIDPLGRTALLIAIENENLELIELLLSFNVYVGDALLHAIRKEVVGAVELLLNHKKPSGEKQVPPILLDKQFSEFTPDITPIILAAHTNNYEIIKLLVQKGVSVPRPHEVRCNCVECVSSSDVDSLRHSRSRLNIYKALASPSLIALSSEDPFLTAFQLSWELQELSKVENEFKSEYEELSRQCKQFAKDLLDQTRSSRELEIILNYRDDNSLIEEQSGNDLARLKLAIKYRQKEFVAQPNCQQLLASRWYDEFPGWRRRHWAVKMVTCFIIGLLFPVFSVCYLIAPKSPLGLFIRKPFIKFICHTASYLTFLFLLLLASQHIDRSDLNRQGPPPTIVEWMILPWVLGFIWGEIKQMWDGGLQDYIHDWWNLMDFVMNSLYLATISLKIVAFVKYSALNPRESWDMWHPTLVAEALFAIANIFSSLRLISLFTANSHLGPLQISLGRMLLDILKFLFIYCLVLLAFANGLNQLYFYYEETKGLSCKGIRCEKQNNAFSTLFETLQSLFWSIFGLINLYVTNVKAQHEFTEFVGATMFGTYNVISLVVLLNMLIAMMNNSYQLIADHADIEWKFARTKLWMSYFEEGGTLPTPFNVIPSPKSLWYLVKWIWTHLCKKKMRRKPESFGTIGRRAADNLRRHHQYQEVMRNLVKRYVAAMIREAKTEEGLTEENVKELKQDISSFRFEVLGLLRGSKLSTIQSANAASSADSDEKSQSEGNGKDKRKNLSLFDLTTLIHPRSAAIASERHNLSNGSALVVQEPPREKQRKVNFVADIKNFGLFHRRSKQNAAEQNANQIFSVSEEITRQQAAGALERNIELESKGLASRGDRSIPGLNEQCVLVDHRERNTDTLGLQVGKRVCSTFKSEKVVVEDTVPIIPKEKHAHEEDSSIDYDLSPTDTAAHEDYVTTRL
# [2] = target: Glyceraldehyde-3-phosphate dehydrogenase (Homo sapiens, UniProt P04406)
# Sequence of Glyceraldehyde-3-phosphate dehydrogenase (P04406 whole entry): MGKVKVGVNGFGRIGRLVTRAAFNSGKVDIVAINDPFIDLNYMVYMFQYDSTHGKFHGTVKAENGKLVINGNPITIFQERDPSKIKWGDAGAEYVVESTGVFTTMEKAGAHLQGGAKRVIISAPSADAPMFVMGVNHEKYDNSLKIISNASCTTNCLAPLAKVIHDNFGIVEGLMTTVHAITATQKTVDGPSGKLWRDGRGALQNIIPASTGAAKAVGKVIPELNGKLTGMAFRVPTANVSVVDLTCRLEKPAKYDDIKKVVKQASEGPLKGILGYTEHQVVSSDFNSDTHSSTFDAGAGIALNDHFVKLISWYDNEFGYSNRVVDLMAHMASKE
# [3] = THP-1 cell cytotoxicity, dose response, cytotoxicity control for non-replicating M. tuberculosis project (AID 489025); format: functional
# [4] = test system: HEK293; experiment: EBV LMP1 TES2 canonical NF-kB signalling blockers – cell-based, HEK293, luciferase, cherry-pick, dose response (AID 588343); format: functional; settings: Homo sapiens
# [5] = target: T2, Zinc finger protein mex-5 (Caenorhabditis elegans, UniProt Q9XUB2); experiment: potency of MEX-5 RNA-binding blockers – biochemical, C. elegans, fluorescence polarization, dose response (AID 1960)
# T2 sequence (Q9XUB2 whole entry): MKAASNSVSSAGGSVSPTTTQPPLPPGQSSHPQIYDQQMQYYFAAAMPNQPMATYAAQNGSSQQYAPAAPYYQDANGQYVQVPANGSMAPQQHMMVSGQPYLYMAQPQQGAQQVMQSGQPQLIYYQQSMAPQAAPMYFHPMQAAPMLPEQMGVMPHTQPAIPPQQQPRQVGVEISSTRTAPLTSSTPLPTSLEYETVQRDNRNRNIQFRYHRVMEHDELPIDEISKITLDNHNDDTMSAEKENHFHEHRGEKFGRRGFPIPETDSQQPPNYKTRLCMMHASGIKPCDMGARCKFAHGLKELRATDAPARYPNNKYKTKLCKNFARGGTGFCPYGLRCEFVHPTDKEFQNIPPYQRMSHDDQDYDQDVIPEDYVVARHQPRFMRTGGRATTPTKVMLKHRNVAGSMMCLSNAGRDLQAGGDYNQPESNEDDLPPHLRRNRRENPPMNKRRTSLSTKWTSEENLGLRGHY
# [6] = target: T3, RNA-binding protein pos-1 (Caenorhabditis elegans, UniProt G5EF15); experiment: disruptors of C. elegans POS-1 RNA interaction – biochemical, fluorescence polarization, dose response (AID 1964);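 note: purified POS-1 fused to maltose binding protein made in E. coli; potency of compounds blocking POS-1 binding to fluorescent RNA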
# T3 sequence (G5EF15 whole entry): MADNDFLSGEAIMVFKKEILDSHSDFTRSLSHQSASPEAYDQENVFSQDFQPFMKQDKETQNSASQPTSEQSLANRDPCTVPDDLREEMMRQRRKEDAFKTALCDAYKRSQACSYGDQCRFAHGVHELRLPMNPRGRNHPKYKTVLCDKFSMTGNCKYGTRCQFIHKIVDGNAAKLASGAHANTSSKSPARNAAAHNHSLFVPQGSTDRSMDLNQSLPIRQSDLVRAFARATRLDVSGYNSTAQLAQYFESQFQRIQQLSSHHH
# [7] = target: Genome polyprotein (dengue virus type 2, UniProt P29990); experiment: flavivirus cap methylation enzyme inhibition – biochemical, confirmation dose response, primary screen (AID 588689); format: functional
# Sequence of Genome polyprotein (P29990 2492-3391 limits assumed): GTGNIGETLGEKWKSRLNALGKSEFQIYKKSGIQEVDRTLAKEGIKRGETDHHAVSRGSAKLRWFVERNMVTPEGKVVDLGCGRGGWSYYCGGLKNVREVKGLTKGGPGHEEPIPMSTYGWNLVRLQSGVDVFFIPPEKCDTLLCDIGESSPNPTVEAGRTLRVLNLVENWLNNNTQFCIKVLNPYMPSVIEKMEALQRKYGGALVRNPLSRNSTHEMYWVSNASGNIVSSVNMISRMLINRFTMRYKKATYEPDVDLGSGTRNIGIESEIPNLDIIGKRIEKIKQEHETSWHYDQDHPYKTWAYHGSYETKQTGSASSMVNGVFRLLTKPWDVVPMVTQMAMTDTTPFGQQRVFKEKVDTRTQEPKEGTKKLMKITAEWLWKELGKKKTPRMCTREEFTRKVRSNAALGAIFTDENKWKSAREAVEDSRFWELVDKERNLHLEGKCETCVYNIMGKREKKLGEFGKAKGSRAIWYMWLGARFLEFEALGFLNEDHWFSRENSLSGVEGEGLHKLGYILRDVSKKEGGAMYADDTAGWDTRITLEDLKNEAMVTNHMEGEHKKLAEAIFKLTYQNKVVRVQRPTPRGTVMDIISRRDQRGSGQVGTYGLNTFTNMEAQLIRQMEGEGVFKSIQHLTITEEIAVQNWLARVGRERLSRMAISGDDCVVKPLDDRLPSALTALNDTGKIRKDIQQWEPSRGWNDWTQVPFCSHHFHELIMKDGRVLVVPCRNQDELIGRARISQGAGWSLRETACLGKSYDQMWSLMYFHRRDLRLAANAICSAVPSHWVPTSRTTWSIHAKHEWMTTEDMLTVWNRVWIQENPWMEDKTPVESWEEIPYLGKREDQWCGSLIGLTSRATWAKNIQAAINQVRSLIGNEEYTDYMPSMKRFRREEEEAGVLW
# [8] = target: Heat shock protein HSP 90-alpha (Homo sapiens, UniProt P07900); format: functional, organism-based
# [9] = test system: BJ; experiment: cells; format: functional, cell-based; settings: Homo sapiens
# [10] = test system: Streptococcus; experiment: GAS UMAA2166 growth inhibition – luminescence, BacTiterGlo, counter-screen for streptokinase expression inhibitor project, dose response (AID 1915); format: functional, organism-based;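 note: potency for reduction of bacterial viability or growth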
# [11] = target: T4, Streptokinase A (Streptococcus pyogenes serotype M1, UniProt P10520); experiment: viability-normalized secreted streptokinase activity reduction – plasminogen activation absorbance, OD405, dose response (AID 1914); format: functional, Streptococcus pyogenes M1 GAS;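 note: secreted streptokinase activity via plasminogen activation per viability signal from cell pellet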
# T4 sequence (P10520 whole entry): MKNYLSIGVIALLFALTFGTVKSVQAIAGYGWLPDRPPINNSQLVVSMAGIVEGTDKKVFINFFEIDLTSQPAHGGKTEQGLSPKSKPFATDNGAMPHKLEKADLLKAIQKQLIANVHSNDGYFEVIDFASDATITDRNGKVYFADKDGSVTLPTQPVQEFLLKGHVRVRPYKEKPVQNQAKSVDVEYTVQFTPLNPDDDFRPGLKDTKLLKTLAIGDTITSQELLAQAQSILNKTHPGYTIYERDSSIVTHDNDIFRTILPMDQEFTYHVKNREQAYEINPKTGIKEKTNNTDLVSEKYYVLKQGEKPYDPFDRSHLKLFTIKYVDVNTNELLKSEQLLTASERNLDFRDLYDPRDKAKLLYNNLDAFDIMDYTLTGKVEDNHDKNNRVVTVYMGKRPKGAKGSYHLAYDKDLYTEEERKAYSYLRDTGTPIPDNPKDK
# [12] = test system: Streptococcus sp. 'group A'; experiment: Streptococcus pyogenes SK(-)GAS viability under kanamycin – luminescence, BacTiterGlo, confirmation, counter-screen for streptokinase expression inhibitor project, dose response (AID 1900); format: functional, organism-based
# [13] = test system: BJ; experiment: BJ-TERT fibroblast viability loss – cell-based, RAS-independent, luminescence, dose response (AID 1933); format: functional; settings: Homo sapiens
# [14] = test system: INS1; experiment: INS-1E survival protection against cytokine death – cell-based, luminescence, retest, dose response (AID 449756); format: functional; settings: Rattus norvegicus;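 note: cell death triggered by IL-1 beta plus TNF-alpha plus IFN-gamma mixture; protective hits raise ATP signal compared with cytokine alone wells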
# [15] = target: Large T antigen (Simian virus 40, UniProt P03070); format: functional, Betapolyomavirus macacae;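 note: Confirmatory-stage PubChem screen for compounds that inhibit SV40 T antigen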
# Sequence of Large T antigen (P03070 whole entry): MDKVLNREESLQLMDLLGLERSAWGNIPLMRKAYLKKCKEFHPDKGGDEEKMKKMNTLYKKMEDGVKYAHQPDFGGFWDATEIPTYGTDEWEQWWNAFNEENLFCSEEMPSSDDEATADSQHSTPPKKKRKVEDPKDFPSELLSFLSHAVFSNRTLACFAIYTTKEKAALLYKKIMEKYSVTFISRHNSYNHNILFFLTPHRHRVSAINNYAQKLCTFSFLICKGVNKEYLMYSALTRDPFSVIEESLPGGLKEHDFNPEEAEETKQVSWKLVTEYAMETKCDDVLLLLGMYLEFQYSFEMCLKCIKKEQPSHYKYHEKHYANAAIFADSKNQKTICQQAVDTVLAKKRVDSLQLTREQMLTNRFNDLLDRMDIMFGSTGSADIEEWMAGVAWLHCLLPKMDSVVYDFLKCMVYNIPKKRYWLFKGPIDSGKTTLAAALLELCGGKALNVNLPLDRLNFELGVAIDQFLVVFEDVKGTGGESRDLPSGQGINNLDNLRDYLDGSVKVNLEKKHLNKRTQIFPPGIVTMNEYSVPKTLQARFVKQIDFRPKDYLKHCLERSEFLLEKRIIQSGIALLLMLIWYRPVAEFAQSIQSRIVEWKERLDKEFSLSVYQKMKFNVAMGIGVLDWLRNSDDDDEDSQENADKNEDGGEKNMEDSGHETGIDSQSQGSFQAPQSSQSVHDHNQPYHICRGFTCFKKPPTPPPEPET
# [16] = NIH-3T3 fibroblast cytotoxicity, dose response, cytotoxicity control, cell-based, fluorescence, Alamar Blue, secondary assay (AID 2327); format: functional;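 note: NIH-3T3 mouse fibroblasts cultured with fluconazole at 8 µg/mL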
# [17] = DRD fibroblast viability loss – cell-based, non-viral oncogenic, luminescence, dose response (AID 1934); format: functional; settings: Homo sapiens
# [18] = viability of HCT116 lacking mutant beta-catenin – cell-based, human colon tumor, dose response (AID 1045); format: functional;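 note: HCT116 colon tumor cells with beta catenin knocked out; cells exposed to compound for 60 hours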
# [19] = test system: BJ; experiment: BJ-TERT-LT-ST fibroblast viability loss – cell-based, RAS-independent, luminescence, dose response (AID 1935); format: functional; settings: Homo sapiens;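 note: BJ fibroblasts immortalized with TERT plus LT and ST oncogenes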
# [20] = viability of PTEN-deleted HCT116 cells – cell-based, HCT116 PTEN knockout, dose response (AID 1047); format: functional;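 note: HCT116 colon tumor cells with PTEN knocked out; cells exposed to compound for 60 hours before readout; potency for loss of cell viability measured by luminescence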
# [21] = target: Cytochrome P450 3A4 (Homo sapiens, UniProt P08684); settings: Potency;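 note: confirmatory qHTS run detecting inhibitors and substrates of CYP3A4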
# Sequence of Cytochrome P450 3A4 (P08684 whole entry, the tested form may be a part): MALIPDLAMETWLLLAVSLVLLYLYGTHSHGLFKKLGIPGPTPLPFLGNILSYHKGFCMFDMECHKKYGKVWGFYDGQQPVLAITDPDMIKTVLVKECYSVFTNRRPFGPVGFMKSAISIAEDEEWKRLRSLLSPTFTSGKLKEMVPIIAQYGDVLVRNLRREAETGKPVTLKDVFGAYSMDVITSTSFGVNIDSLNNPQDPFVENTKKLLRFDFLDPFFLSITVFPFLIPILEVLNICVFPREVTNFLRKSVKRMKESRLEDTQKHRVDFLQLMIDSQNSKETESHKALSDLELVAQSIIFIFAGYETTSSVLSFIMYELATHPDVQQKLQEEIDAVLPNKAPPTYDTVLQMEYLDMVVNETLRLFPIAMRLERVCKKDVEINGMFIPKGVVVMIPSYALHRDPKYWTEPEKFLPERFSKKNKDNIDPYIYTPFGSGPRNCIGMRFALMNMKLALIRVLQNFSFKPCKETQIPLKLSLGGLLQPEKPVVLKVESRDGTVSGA
# [22] = target: T5, Polyadenylate-binding protein 1 (Homo sapiens, UniProt P11940); experiment: MLLE domain peptide-binding blockers, IC50 – biochemical, fluorescence polarization, FITC-PAM2 peptide, dose response (AID 602259); format: functional; settings: read-out: IC50_Mean
# T5 sequence (P11940 whole entry, the tested form may be a part): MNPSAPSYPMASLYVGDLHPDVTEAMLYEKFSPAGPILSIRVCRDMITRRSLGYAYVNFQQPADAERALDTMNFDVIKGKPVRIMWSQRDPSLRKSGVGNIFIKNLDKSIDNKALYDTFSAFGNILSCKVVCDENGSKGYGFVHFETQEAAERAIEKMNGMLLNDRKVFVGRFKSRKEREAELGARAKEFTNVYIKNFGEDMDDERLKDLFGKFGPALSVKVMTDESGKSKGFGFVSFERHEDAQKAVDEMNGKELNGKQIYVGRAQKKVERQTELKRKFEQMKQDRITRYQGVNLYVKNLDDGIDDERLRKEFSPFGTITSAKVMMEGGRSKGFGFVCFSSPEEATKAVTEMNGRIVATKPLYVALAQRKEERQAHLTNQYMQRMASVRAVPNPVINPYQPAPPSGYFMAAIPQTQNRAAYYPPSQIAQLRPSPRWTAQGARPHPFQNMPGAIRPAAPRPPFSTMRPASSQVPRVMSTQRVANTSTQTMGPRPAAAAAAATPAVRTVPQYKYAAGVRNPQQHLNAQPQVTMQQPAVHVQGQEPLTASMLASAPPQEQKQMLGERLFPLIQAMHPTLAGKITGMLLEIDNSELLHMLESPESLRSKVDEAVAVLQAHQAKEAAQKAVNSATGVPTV
# [23] = target: T5, Polyadenylate-binding protein 1; experiment: MLLE binding blockers, Cy5 peptide tracer – biochemical, fluorescence polarization, Cy5-PAM2 peptide, secondary, miRNA deadenylation inhibitor project, dose response (AID 602260); format: functional; settings: read-out: IC50_Mean
# [24] = target: Paired box protein Pax-8 (Homo sapiens, UniProt Q06710); experiment: PAX8 transcriptional activity inhibition in RMG-I – RMG-I cells, luciferase, cherry-pick, dose response (AID 687027); format: functional, cell-based;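 note: luciferase reporter driven by Pax8 target thyroperoxidase promoter measured by SteadyGlo luminescence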
# Sequence of Paired box protein Pax-8 (Q06710 whole entry): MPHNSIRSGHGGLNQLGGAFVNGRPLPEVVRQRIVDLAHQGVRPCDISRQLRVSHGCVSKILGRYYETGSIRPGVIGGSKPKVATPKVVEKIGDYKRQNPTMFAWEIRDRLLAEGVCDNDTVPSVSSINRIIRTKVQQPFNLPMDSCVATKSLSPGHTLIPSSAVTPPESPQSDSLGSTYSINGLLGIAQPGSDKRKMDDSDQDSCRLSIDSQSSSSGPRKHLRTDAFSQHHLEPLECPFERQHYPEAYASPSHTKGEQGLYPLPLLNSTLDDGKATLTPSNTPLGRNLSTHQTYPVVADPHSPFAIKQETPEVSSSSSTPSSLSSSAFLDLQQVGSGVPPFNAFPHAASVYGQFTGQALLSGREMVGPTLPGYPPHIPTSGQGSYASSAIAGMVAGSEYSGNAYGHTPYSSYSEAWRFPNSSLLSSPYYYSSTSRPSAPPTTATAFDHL
# [25] = Trypanosoma cruzi growth suppression in host cells – NIH3T3 host cells, beta-gal luminescence, confirmation (AID 2044); format: functional, cell-based;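 note: intracellular parasites grown in NIH/3T3 mouse fibroblasts as host cells; luminescent beta-galactosidase reporter signal from transgenic T. cruzi replicating inside host cells; inhibitors lower the luminescence signal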
# [26] = NIH3T3 cell viability loss – ATP luminescence, mouse fibroblasts, counter-screen, dose response (AID 2010); format: functional, cell-based;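 note: cells exposed to compound for about 90 hours before reading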
smiles,measurement,setting,value
Cc1cccn2cc(-c3c[nH]c4ccccc34)nc12,EC50,[1],5.96 µM (active)
CC1CC(C)(C)NCCNC(C)CC(C)(C)NCCN1 (stereo not drawn),IC50,[2],> 10 µM (inconclusive)
Cc1ccc(CNC(C)c2ccccc2)cc1 (stereo not drawn),EC50,[1],6.68 µM (active)
Cc1nc(Cl)nc(N(C)c2ccccc2)c1[N+](=O)[O-],CC50,[3],22.9 µM (active)
same,EC50,[1],13.3 µM (active)
Cc1c(NC(=O)c2cc(-c3cccs3)nc3ccccc23)c(=O)n(-c2ccccc2)n1C,AC50,[4],> 350 µM (inactive)
O=C(O)c1cccc(-n2cccc2C=C2C(=O)c3ccccc3C2=O)c1,EC50,[5],48.5 µM (active)
same,EC50,[6],37 µM (active)
Cc1cccc2nc(CSc3ccc(Cl)cc3)cn12,EC50,[1],4.22 µM (active)
COc1cccc(/C=C2/C(=O)NN(c3ccc(C)c(C)c3)C2=O)c1,IC50,[7],> 100 µM (active)
O=C(/C=C/c1cccc(Cl)c1)c1ccc([N+](=O)[O-])o1,AC50,[8],1.28 µM (active)
same,EC50,[9],9.18 µM (inconclusive)
same,EC50,[10],6.98 µM (active)
same,EC50,[11],3.36 µM (active)
same,EC50,[12],3.18 µM (active)
same,EC50,[13],> 150 µM (inconclusive)
same,AC50,[14],2.31 µM (active)
same,IC50,[15],40.9 µM (active)
same,EC50,[16],4.56 µM (inconclusive)
same,EC50,[17],2.5 µM (inconclusive)
N=c1c(S(=O)(=O)c2ccccc2)cc2c(=O)n3ccccc3nc2n1Cc1cccnc1,EC50,[5],6.91 µM (inconclusive)
same,EC50,[6],68.1 µM (inconclusive)
Brc1cc2c(cc1C1Nc3ccccc3C3C=CCC31)OCO2 (stereo not drawn),EC50,[10],25.4 µM (active)
same,EC50,[11],2.55 µM (active)
same,EC50,[5],> 300 µM (not active)
same,EC50,[12],7.1 µM (active)
same,EC50,[6],> 300 µM (not active)
N#Cc1c(SC(C(=O)O)c2ccccc2)nc2c(c1-c1cccs1)CCCC2 (stereo not drawn),IC50,[7],39.2 µM (active)
COc1cc(C(=O)N2CCN(c3ccc(C)cc3C)CC2)cc(OC)c1OC,EC50,[9],138 µM (inconclusive)
same,EC50,[18],3.45 µM (active)
same,EC50,[13],11.9 µM (active)
same,EC50,[19],21.8 µM (inconclusive)
same,EC50,[20],2.65 µM (active)
same,EC50,[17],3.97 µM (active)
O=C(Cc1ccc(Br)cc1)NCc1ccccc1,EC50,[9],56.3 µM (inconclusive)
same,EC50,[13],11.9 µM (active)
same,EC50,[19],45.4 µM (inconclusive)
same,EC50,[17],4.57 µM (active)
CCCSc1nc(N)nc(-c2cccs2)c1C#N,EC50,[1],2.66 µM (active)
Cc1cc(C)c(N2C(=O)NC(=O)/C(=C\NNC(=O)c3ccncc3)C2=O)c(C)c1,EC50,[5],36.6 µM (active)
same,EC50,[6],64.7 µM (active)
COc1ccc(CN2CCCC(C(=O)c3sccc3C)C2)cc1O (stereo not drawn),EC50,[1],11.9 µM (active)
CC1(C)C[C@@H]2C(=O)CCC3O[C@@]3(C)CCC21 (stereo partly drawn),AC50,[21],12.6 µM (inconclusive)
O=C(NNS(=O)(=O)c1ccc([N+](=O)[O-])cc1)C(=O)Nc1cccc(C(=O)O)c1,EC50,[5],12.3 µM (inconclusive)
same,EC50,[6],9.52 µM (inconclusive)
NC1=NC(=O)/C(=C/c2ccc(-c3cc([N+](=O)[O-])ccc3Cl)o2)S1,IC50,[2],> 100 µM (not active)
Nc1c2c(nc3ccccc13)CCC2,EC50,[1],4.22 µM (active)
CCCn1c(-c2ccc(F)cc2)nc2c(NCCN(CC)CC)nc(C)nc21,AC50,[21],15.8 µM (inconclusive)
CC1=CC(=O)C(Sc2ccc(C)cc2)=CC1=O,IC50,[22],> 66 µM (inactive)
same,IC50,[23],> 66 µM (inactive)
same,IC50,[7],14.5 µM (active)
COc1ccc(S(=O)(=O)Nc2ccc3c(c2)C(=O)N([C@H](C)CO)C[C@H](C)[C@H](CN(C)S(=O)(=O)c2ccc(F)cc2)OCCCC[C@H](C)O3)cc1,AC50,[24],4.78 µM (active)
C/C(=N\c1ccc(Br)cc1)c1sc2ccccc2c1O,EC50,[5],> 300 µM (inconclusive)
same,EC50,[6],> 300 µM (not active)
same,EC50,[25],4.08 µM (active)
same,EC50,[26],> 60 µM (not active)
Cc1cccc(/C=N/NC(=O)CNc2cccc3ccccc23)n1,AC50,[4],107 µM (active)
COC1=CC(=O)C(C(=O)c2ccccc2)=CC1=O [2-BENZOYL-5-METHOXYBENZOQUINONE],AC50,[21],10 µM (inconclusive)

# Source: ChEMBL document CHEMBL1201862, “PubChem BioAssay data set” (2004)
